One may read the inhibition as the drop in the measured response relative to a control, in per cent.

Drawing on paper PMC3639963, “A New Class of Small Molecule Inhibitor of BMP Signaling” (PLoS ONE, 2013), this text covers inhibition for two molecules.

Common to all, as to test: Nanosyn kinase profiling
Assay type in all cases: biochemical
Common to all, as to details: read-out: Percentage inhibition; for inhibition at 0.1 µM: 0.1 µM inhibitor; for inhibition at 1 µM: 1 µM inhibitor

In one experiment the target is T1, TRKC (Homo sapiens, UniProt Q16288).
T1 construct: purchased Nanosyn (enzymatic panel); SGC in-house recombinant human kinases (DSF panel); Invitrogen (ALK1-6)
How it is done: (§1) Percentage inhibition was determined for each kinase at both 0.1 µM and 1 µM inhibitor concentration (supplemental Table S2). […]. […]. When visualized on a kinase phylogenetic tree, these were primarily clustered within the receptor tyrosine kinases (TKs) as well as the calmodulin-dependent kinases (CAMKs) (Figure 2C).
(§2) Inhibitor selectivity profiling against 200 human kinases at 0.1 and 1 µM inhibitor concentration was performed by Nanosyn (www.nanosyn.com).

The target of a further experiment is T2, TXK (Homo sapiens, UniProt P42681).
T2 construct: purchased Nanosyn (enzymatic panel); SGC in-house recombinant human kinases (DSF panel); Invitrogen (ALK1-6)
T2 sequence (P42681 1-527): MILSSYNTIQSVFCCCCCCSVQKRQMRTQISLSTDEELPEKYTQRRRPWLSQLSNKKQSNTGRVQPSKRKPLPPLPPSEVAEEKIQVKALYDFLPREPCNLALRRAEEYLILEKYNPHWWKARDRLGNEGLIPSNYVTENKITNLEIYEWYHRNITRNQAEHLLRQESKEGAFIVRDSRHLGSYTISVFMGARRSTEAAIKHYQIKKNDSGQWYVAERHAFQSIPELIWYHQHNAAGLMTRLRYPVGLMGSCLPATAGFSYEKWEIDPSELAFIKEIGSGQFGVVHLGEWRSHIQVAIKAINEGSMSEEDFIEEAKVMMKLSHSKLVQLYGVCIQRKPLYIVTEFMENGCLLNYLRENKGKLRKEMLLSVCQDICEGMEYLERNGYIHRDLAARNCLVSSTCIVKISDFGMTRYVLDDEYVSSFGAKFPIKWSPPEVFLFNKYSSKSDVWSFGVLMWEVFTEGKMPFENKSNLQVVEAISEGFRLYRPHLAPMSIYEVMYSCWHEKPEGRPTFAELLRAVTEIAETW
As to the method:
as §1, §2

The target in a further experiment is T3, SRC (Homo sapiens, UniProt P12931).
T3 construct: purchased Nanosyn (enzymatic panel); SGC in-house recombinant human kinases (DSF panel); Invitrogen (ALK1-6)
How it is done:
as §1, §2

A further experiment addresses T4, CK1γ1 (Homo sapiens, UniProt Q9HCP0).
T4 construct: purchased Nanosyn (enzymatic panel); SGC in-house recombinant human kinases (DSF panel); Invitrogen (ALK1-6)
How it is done:
as §1, §2

A further experiment has as its target T5, LRRK2 (Homo sapiens, UniProt Q5S007).
T5 construct: purchased Nanosyn (enzymatic panel); SGC in-house recombinant human kinases (DSF panel); Invitrogen (ALK1-6)
How it is done: as §1, §2

In a further experiment the target is T6, SPHK2 (Homo sapiens, UniProt Q9NRA0).
T6 construct: purchased Nanosyn (enzymatic panel); SGC in-house recombinant human kinases (DSF panel); Invitrogen (ALK1-6)
T6 sequence (Q9NRA0 1-654): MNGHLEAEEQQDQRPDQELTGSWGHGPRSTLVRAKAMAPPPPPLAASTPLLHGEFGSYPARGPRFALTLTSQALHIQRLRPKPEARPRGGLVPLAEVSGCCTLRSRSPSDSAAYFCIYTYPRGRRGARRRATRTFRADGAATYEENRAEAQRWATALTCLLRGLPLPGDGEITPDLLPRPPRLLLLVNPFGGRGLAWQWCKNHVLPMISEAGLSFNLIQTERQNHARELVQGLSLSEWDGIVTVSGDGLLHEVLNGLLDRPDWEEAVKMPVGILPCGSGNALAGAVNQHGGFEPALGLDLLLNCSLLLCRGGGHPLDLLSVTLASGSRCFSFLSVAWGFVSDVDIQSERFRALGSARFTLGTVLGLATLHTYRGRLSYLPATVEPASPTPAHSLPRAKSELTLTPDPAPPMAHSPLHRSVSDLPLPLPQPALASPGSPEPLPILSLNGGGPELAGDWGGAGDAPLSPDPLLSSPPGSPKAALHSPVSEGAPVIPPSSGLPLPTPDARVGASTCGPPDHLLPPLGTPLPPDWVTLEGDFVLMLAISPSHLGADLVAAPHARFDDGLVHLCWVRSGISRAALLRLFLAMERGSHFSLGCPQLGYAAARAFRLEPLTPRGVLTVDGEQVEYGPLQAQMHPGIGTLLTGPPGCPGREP
How it is done: as §1, §2

A further experiment addresses T7, PDGFRβ (Homo sapiens, UniProt P09619).
T7 construct: purchased Nanosyn (enzymatic panel); SGC in-house recombinant human kinases (DSF panel); Invitrogen (ALK1-6)
How it is done:
as §1, §2

The next experiment concerns the target T8, PI3-K-δ (Homo sapiens, UniProt O00329).
T8 construct: purchased Nanosyn (enzymatic panel); SGC in-house recombinant human kinases (DSF panel); Invitrogen (ALK1-6)
How it is done:
as §1, §2

A further experiment has as its target T9, RSK2 (Homo sapiens, UniProt P51812).
T9 construct: purchased Nanosyn (enzymatic panel); SGC in-house recombinant human kinases (DSF panel); Invitrogen (ALK1-6)
As to the method: as §1, §2

The target of a further experiment is T10, PRKG1 (Homo sapiens, UniProt Q13976).
T10 construct: purchased Nanosyn (enzymatic panel); SGC in-house recombinant human kinases (DSF panel); Invitrogen (ALK1-6)
T10 sequence (Q13976 1-671): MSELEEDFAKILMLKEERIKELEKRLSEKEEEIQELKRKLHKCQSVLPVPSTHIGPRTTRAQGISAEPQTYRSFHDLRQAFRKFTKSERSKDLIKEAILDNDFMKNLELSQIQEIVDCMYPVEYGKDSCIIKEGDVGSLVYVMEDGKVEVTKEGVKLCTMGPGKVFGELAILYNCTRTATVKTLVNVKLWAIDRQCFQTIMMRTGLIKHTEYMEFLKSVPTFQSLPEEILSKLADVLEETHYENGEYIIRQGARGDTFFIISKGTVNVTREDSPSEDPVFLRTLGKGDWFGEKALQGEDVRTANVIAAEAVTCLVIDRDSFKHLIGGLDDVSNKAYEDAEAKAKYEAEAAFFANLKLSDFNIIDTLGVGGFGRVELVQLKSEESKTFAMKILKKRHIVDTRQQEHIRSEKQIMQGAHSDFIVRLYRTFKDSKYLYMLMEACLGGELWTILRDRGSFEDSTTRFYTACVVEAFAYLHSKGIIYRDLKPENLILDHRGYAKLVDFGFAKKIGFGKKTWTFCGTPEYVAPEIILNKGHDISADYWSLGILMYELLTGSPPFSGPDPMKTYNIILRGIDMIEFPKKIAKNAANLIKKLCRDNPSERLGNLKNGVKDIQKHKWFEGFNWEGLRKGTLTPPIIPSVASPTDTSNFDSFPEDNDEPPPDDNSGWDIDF
How it is done: as §1, §2

The structures appear in SMILES notation.

T1 sequence (Q16288 32-839): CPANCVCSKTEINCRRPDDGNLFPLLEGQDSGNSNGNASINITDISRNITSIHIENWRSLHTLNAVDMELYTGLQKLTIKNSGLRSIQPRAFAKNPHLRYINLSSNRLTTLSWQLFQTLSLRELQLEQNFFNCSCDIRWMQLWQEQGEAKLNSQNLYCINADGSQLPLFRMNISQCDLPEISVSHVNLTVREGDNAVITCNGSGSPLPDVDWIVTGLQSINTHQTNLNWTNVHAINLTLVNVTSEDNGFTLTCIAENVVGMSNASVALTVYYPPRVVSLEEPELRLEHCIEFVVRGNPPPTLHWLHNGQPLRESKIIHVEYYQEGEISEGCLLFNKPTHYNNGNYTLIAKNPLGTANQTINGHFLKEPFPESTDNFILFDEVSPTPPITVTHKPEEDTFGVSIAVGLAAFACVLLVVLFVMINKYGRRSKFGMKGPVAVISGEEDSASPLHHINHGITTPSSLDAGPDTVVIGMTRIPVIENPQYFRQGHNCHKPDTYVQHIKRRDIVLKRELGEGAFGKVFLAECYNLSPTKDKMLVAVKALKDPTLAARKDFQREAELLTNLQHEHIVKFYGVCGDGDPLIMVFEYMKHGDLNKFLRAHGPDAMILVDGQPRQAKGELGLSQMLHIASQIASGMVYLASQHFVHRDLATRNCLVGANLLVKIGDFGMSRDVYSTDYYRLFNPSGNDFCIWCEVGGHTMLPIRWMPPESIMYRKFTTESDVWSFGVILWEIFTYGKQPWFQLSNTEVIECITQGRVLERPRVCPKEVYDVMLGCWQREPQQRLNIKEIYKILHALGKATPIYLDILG
T4 sequence (Q9HCP0 whole entry): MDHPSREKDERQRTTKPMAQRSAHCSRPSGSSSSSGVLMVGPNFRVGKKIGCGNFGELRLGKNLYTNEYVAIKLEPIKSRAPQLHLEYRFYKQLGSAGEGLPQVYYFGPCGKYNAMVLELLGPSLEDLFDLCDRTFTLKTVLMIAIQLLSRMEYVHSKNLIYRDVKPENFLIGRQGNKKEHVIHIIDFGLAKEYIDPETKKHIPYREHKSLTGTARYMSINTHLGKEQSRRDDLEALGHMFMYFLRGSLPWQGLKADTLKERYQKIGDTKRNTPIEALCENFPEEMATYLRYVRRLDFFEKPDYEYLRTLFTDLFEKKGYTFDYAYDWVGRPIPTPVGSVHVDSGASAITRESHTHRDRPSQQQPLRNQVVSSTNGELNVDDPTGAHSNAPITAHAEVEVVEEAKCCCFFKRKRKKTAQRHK
T9 sequence (P51812 whole entry): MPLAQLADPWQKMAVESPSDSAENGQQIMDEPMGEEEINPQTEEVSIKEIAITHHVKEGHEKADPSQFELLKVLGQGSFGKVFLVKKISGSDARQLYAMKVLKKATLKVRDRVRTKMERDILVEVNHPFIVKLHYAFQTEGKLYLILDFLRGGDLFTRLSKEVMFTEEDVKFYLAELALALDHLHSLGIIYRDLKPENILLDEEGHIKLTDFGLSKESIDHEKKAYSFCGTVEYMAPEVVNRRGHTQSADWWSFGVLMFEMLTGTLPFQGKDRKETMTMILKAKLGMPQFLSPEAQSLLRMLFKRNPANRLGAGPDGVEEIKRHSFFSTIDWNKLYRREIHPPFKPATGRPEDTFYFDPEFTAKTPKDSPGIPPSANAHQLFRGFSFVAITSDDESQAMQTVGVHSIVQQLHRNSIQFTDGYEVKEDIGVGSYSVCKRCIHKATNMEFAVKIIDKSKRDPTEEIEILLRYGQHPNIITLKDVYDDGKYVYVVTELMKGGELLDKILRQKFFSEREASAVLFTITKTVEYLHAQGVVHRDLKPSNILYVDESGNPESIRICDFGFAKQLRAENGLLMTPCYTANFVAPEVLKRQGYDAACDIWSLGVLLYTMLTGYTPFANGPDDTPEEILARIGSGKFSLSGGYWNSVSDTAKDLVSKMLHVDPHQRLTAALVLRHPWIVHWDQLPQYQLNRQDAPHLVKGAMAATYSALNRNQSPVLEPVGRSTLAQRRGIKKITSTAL
T7 sequence (P09619 33-1106): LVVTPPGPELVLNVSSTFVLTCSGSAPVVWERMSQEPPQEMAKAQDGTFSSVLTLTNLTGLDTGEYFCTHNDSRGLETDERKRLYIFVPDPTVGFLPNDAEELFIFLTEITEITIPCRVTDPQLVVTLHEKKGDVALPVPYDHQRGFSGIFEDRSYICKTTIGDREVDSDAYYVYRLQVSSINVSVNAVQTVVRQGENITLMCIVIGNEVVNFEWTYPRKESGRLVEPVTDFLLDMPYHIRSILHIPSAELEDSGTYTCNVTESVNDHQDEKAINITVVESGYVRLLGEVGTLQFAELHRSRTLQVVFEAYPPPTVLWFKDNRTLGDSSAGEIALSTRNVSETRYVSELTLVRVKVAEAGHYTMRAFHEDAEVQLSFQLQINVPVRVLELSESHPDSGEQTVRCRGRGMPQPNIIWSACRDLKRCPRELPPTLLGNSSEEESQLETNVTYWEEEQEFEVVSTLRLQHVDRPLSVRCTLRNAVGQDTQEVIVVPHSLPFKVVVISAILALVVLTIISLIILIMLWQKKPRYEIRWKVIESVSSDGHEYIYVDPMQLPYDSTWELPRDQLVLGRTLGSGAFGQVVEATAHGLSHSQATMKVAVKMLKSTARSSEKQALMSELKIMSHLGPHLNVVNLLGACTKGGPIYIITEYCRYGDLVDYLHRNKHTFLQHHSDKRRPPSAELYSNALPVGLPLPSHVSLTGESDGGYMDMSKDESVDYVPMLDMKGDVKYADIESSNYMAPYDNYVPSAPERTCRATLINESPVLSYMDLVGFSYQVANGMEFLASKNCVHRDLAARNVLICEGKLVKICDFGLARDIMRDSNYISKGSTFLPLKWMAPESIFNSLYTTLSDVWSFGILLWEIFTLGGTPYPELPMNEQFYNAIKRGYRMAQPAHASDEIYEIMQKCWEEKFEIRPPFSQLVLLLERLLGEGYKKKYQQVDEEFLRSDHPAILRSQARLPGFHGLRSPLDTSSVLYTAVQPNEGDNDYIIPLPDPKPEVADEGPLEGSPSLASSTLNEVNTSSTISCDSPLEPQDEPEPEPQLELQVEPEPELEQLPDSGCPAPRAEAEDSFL
T8 sequence (O00329 whole entry): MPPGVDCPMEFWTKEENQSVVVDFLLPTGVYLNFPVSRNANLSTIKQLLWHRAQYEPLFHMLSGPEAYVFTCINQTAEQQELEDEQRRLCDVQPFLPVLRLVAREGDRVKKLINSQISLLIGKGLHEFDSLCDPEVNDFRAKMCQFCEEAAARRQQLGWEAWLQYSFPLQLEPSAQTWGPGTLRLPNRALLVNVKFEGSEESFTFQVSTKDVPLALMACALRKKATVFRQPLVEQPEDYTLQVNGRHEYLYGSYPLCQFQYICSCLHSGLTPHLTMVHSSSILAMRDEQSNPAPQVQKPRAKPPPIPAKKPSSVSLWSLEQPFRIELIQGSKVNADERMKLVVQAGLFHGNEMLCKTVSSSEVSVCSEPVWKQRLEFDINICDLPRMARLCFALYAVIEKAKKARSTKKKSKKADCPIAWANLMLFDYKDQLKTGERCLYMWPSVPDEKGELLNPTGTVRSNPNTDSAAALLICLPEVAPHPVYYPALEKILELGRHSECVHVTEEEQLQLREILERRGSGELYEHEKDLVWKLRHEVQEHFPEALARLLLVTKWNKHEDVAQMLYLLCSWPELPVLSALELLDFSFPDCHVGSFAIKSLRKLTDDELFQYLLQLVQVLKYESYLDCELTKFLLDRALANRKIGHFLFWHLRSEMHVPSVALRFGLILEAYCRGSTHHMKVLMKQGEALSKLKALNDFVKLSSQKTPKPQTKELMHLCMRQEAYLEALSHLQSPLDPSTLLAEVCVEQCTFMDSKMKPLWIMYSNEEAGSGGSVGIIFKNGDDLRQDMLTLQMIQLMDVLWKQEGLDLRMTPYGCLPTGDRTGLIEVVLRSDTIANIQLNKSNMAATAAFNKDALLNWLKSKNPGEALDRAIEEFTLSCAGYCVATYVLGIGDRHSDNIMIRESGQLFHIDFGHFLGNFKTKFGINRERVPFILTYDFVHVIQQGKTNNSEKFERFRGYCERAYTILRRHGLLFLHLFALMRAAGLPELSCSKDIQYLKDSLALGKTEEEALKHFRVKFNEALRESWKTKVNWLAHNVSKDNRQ
T8 sequence (P27986 whole entry partner): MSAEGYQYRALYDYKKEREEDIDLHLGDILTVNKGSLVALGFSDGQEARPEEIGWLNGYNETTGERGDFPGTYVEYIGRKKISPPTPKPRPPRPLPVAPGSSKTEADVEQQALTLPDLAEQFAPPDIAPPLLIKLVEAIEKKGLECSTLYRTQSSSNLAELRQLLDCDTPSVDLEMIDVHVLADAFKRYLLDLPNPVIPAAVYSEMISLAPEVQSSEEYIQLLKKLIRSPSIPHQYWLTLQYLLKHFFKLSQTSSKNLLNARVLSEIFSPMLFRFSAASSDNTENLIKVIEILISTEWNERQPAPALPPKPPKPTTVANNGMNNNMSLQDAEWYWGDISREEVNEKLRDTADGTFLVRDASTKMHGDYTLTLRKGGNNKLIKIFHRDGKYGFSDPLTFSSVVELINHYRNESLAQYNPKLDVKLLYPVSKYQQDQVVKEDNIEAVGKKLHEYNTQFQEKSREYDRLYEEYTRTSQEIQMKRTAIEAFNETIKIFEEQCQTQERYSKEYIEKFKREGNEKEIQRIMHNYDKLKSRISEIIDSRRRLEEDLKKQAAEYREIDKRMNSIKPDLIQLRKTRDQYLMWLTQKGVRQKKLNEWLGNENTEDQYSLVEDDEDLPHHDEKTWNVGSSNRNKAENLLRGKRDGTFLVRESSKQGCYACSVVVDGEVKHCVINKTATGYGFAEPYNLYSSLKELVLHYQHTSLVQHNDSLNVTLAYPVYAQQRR

As to `c1ccc2c(-c3cnn4cc(-c5ccc(N6CCNCC6)cc5)cnc34)ccnc2c1` [LDN-193189], the inhibition at 0.1 µM at TRKC is 1.6%; at TXK it was 4.1%; at SRC, 8%; at CK1γ1, 3.1%; on LRRK2, 8.7%; on SPHK2, -1%. Also, the inhibition at 0.1 µM on PDGFRβ is 39%; at PI3-K-δ, -1%; on RSK2 it was 1.2%; on PRKG1 it was 1%. Further, the inhibition at 1 µM at TRKC was 3.9%; at TXK, 16%; at SRC, 33%; on CK1γ1, 14%; on LRRK2, 27%; at SPHK2, -3%. The inhibition at 1 µM was found to be 75% at PDGFRβ, 10% on PI3-K-δ, 5.4% at RSK2 and 1.2% on PRKG1.

For `COc1cc(-c2cc(-c3cccc(O)c3)cnc2N)cc(OC)c1OC` [K02288, 3-[6-amino-5-(3,4,5-trimethoxy-phenyl)-pyridin-3-yl]-phenol], the inhibition at 0.1 µM on TRKC was 2.7%; on TXK it was 2.8%; at SRC, 5.1%; at CK1γ1 it was 0%; on LRRK2, 7.1%; on SPHK2 it was -2%. Also, the inhibition at 0.1 µM on PDGFRβ amounted to 7.7%; at PI3-K-δ, 0.8%; on RSK2, 0.8%; on PRKG1, 0.3%. Moreover, the inhibition at 1 µM on TRKC was 2.4%; on TXK, 36%; on SRC it was 40%; at CK1γ1 it was 6.1%; on LRRK2 it was 27%; on SPHK2 it was 4.4%. Also, the inhibition at 1 µM at PDGFRβ worked out at 43%; at PI3-K-δ, 2.5%; at RSK2, 2.2%; at PRKG1, 3.3%.
